Experimental data reported in US20020016346A1, “Method for enhancing outflow of aqueous humor in treatment of glaucoma” (The Regents University of California, a California …, priority 1994, published 2002).
pIC50: −log10 of the molar value. Read-outs that look alike come from different tables or passages of the source.

Experiments:
Na+2Cl−K+ co-transporter = biological target: T1, Na+2Cl−K+ co-transporter (Oryctolagus cuniculus, UniProt P55015); test: Inhibition of short circuit current in perfused cortical thick ascending limb of the loop of Henle; assay type: cell-based, rabbit; settings: concentration blocking 50% of short circuit current; for pIC50: read-out: IC50
T1 construct: cotransporter system found in the cortical thick ascending limbs of the loop of Henle of mammals; from tissue; host or cells: dissected, perfused cortical thick ascending limb tubules of rabbit kidney
T1 sequence (P55015 1-1099): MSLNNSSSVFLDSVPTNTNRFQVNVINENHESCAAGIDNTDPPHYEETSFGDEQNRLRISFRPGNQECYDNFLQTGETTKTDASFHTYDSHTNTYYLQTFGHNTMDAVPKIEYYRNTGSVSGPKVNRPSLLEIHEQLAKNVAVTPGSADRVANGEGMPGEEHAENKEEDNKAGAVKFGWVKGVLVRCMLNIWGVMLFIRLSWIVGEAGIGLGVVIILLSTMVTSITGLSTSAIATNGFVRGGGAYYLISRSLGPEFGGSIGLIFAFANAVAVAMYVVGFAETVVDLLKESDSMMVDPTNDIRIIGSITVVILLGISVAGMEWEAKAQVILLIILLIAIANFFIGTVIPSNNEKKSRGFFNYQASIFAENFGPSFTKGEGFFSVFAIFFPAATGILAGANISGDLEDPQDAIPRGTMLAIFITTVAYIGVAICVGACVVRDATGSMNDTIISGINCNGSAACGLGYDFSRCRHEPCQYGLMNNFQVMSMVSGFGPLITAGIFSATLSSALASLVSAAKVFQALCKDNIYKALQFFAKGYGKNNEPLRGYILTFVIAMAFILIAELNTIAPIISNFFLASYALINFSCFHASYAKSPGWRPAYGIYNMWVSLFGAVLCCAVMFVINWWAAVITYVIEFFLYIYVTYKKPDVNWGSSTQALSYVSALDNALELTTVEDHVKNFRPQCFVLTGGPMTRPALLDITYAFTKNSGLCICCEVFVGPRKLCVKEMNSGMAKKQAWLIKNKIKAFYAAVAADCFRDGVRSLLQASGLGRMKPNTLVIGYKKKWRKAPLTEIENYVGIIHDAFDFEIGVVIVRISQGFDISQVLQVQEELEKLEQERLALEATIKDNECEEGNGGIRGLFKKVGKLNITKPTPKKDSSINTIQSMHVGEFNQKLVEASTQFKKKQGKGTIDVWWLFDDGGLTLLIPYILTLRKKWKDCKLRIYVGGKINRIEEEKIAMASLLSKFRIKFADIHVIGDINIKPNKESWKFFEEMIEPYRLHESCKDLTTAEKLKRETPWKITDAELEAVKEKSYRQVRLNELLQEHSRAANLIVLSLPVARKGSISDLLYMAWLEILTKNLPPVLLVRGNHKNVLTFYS
Text: B. Burg et al. (Am J. Physiol. 210:1293-1298, 1966) as modified by […] Arch. 390:30-37, 1981) and […] et al. (Pflüger's Arch. 389:175-176, 1981), both of which are incorporated herein by reference in their entireties. In brief, this in vitro test uses the Na-2Cl^- K^+ cotransporter system found in the cortical thick ascending limbs of the loop of Henle of mammals, particularly rabbits, for example, female white New Zealand rabbits. The tubules are dissected and perfused according to the known techniques, but with the rate of perfusion through the lumen kept high (10-20 nl/min) to prevent changes in the ionic composition of the perfusate along the perfused tubule. As control perfusate, a solution containing (mM): NaCl 145; […] KH2PO4 0.4; MgCl2 1; Ca gluconate 1.3; and glucose 5 is used on both sides of the epithelium with pH adjusted to 7.4 The transepithelial potential (Vtc) is recorded continuously on both ends of the tubule. […] The ratio of both values ([…] the equivalent short circuit current Itc. There is a direct relationship between the decrease of Itc and the inhibition of the Na^+2Cl^-K^+ co-transporter by contact with the test compound ([…] et al., Klin. Wochenschr. 61:1019-1027, 1983). For each drug under study, dose-response curves are established by adding compounds at various concentrations to the luminal perfusate with at least three determinations for each concentration. […] Details of this method have been published previously in M. E. O'Donnell, J. Biol. Chem. 264:11559-11566, 1991, which is incorporated herein by reference in its entirety. An illustration of the use of this method is found in Example 1B of this application.

[1] = Lipophilicity (log P′), n-octanol/phosphate buffer pH 7.4 shake-flask or RP-HPLC; assay type: physicochemical
Procedure: The lipophilicity of a compound is expressed in terms of an octanol:water coefficient determined by the standard technique of radiolabelling the compound and introducing a small amount into equal volumes of octanol and tris buffer (50 mM, pH 7.4). Generally the lipophilicity (log P′) is expressed as the logarithm of the partition coefficient in n-octanol/phosphate buffer, pH 7.4 using the well known shake-flask method as described by Cloux, et al., J. Pharm. Belg., 43:141-151, 1973, which is incorporated herein by reference in its entirety. The coefficient of lipophilicity (log P′) of the compounds useful for topical application to decrease intra-ocular pressure is preferably at least 0.005, and more preferably at least 0.01.
The lipophilicity of the aqueous humor outflow-increasing compounds of this invention can also be determined using a reversed phase, high performance liquid chromatograph (RP-HPLC) system for determination of the log P′ of the drug as described in B. Masereel, et al. (J. Pharm. Pharmacol. 44:589-593, 1992), which is incorporated herein by reference in its entirety. Briefly, a reversed phase column (RP-18) is equilibrated with n-propanol/phosphate buffer, pH 7.4 at a ratio of 30:70). Compounds to be tested are dissolved and eluted with the same solution. A series of standards with a wide range of lipophilicity, as determined by the shake-flask method, is run and a calibration curve is established for each session. KNO3 is injected to determine the void volume and […] is determined, wherein tr is the drug retention time andot is the retention time of NO3-. Calibration curves are calculated using log P′ and log k′ values. Log P′ values of other compounds are obtained by interpolation of the standard curves.

Na—K—Cl cotransport = biological target: T2, Na—K—Cl cotransport (Bos taurus, UniProt F1MS08); test: K influx (86Rb) in bovine TM cell monolayers; assay type: cell-based; settings: bovine TM cells; VP 100 nM, NE 10 μM, Ach 1 μM, cAMP 50 μM, cGMP 50 μM, A23187 1 μM, PMA 10 nM, Ca-free medium plus 5 μM BAPTA-AM; control 25.6 ± 0.71
T2 sequence (F1MS08 1-1204): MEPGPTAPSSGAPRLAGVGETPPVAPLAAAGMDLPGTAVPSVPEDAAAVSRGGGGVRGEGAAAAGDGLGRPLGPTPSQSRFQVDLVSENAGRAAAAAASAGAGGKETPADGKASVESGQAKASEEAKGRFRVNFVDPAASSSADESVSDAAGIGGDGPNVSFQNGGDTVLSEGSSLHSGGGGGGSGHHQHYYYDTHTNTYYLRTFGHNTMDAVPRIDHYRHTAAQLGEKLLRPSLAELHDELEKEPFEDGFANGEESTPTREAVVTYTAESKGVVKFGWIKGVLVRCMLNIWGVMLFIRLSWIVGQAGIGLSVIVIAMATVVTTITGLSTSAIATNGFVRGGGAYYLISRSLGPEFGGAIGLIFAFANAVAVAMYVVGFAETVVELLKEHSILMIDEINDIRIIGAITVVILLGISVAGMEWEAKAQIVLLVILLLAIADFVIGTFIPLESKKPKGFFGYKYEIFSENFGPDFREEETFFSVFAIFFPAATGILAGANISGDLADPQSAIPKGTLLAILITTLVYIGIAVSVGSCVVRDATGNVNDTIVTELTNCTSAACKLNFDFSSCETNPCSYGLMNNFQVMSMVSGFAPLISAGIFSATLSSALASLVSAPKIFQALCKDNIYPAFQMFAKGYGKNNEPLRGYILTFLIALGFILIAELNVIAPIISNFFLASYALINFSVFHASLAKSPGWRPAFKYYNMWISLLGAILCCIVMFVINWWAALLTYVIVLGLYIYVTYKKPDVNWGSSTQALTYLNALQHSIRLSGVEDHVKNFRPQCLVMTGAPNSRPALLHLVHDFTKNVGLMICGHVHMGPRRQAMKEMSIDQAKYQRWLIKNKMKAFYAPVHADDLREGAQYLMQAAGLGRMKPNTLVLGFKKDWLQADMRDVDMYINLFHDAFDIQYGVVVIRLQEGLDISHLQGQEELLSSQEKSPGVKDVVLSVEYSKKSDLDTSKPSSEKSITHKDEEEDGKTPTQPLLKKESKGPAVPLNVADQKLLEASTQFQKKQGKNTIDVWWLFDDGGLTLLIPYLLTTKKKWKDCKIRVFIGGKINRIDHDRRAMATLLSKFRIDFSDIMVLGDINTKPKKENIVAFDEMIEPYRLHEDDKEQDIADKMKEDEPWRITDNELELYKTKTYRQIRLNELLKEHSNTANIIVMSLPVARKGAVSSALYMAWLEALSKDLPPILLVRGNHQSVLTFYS
Procedure: Details of this method have been published previously (O'Donnell, M. E., supra, 1989). Briefly, bovine or human TM cell monolayers on 24 well plates were equilibrated for 10 minutes at 37° C. in a Hepes-buffered minimal essential medium (MEM) containing (in mM): 144 Na, 147 Cl, 5.8 K, 1.2 Ca, 4.2 HCO3, 0.4 H2PO4, […], 0.4 SO4, 5.6 glucose and 20 Hepes. […] The assay medium also contained ^86Rb (1 μCi/ml) (Dupont New England Nuclear, Boston, Mass.). The assay was terminated by rinsing the wells with ice-cold isotonic MgCl2, then extracting the contents with 0.2% sodium dodecyl sulfate (SDS), and determining the amount of radioactive contents by liquid scintillation. Osmolarities of all preincubation and assay media were verified by osmometry (Model 3W2, Advanced Instruments, Norwood, Mass.).
The effects of hormones, neurotransmitters and second messengers on Bumetanide-sensitive K influx of bovine trabecular meshwork cells were assessed using the procedures of Example 1. […] The control is the Hepes-buffered medium containing Na, K, Cl, CA and other ions as described in Example 1B. […] The data represent the mean values±SEM of quadruplicate determinations from two experiments.

| pIC50 (Na+2Cl−K+ co-transporter) | logP [1] | IC50 (Na+2Cl−K+ co-transporter) | SMILES | BUMETANIDE-SENSITIVE K INFLUX (Na—K—Cl cotransport) |
| --- | --- | --- | --- | --- |
| 5.55 | 2.06 | – | O=C(NC1CCCCCC1)NS(=O)(=O)c1cnccc1NC1CCCCCC1 [Compound 13] | – |
| – | – | – | CCCCCCCCCCCCCC(=O)O[C@@H]1[C@@H](C)[C@@]2(O)[C@@H](C=C(CO)C[C@]3(O)C(=O)C(C)=C[C@@H]23)[C@@H]2C(C)(C)[C@]12OC(C)=O [PMA, phorbol 12-myristate 13-acetate] | 34.0 ± 1.33 μmol/g protein/min |
| 6.15 | 0.58 | – | CC(C)NC(=O)NS(=O)(=O)c1cnccc1NC1CCCCC1 [Compound 8] | – |
| 6.82 | 1.65 | – | O=C(NS(=O)(=O)c1cnccc1NC1CCCCCCC1)N1CCCCC1 [Compound 23] | – |
| 5.77 | 2.44 | – | O=C(NC1CCCCCCC1)NS(=O)(=O)c1cnccc1NC1CCCCCC1 [Compound 16] | – |
| – | – | – | NC[C@H](O)c1ccc(O)c(O)c1 [NE, norepinephrine] | 18.6 ± 1.79 μmol/g protein/min |
| 6.49 | 0.62 | – | O=C(NS(=O)(=O)c1cnccc1NC1CCCCC1)N1CCCCC1 [Compound 21] | – |
| 6.33 | 2.05 | – | O=C(NC1CCCCC1)NS(=O)(=O)c1cnccc1NC1CCCCCCC1 [Compound 11] | – |
| – | – | – | CNc1ccc2oc(C[C@H]3O[C@@]4(CC[C@H]3C)O[C@H]([C@H](C)C(=O)c3ccc[nH]3)[C@H](C)C[C@H]4C)nc2c1C(=O)O [Compound A23187, A23187] | 33.4 ± 5.33 μmol/g protein/min |
| 5.02 | 1.72 | – | O=C(NC1CCCCCC1)NS(=O)(=O)c1cnccc1NC1CCCCC1 [Compound 12] | – |
| 5.70 | 2.45 | – | O=C(NC1CCCCCC1)NS(=O)(=O)c1cnccc1NC1CCCCCCC1 [Compound 14] | – |
| 6.10 | 1.79 | – | O=S(=O)(NC(=S)NC1CCCCC1)c1cnccc1NC1CCCCCC1 [Compound 20] | – |
| 6.60 | 1.24 | – | O=C(NS(=O)(=O)c1cnccc1NC1CCCCCC1)N1CCCCC1 [Compound 22] | – |
| 6.25 | 2.7 | – | O=C(NC1CCCCCCC1)NS(=O)(=O)c1cnccc1NC1CCCCCCC1 [Compound 17] | – |
| 6.70 | 0.45 | – | Cc1cccc(Nc2ccncc2S(=O)(=O)NC(=O)NC(C)C)c1 [Compound 7] | – |
| 5.85 | 2.07 | – | O=C(NC1CCCCCCC1)NS(=O)(=O)c1cnccc1NC1CCCCC1 [Compound 15] | – |
| < 4.00 | 3.45 | inactive | O=C(NC1CCCCC1)NS(=O)(=O)c1cnccc1NC1CCCCCCCCCCC1 [Compound 18] | – |
| 4.72 | 1.33 | – | O=C(NC1CCCCC1)NS(=O)(=O)c1cnccc1NC1CCCCC1 [Compound 9] | – |
| 5.46 | 1.67 | – | O=C(NC1CCCCC1)NS(=O)(=O)c1cnccc1NC1CCCCCC1 [Compound 10] | – |
| 5.89 | 0.96 | – | CC(C)NC(=S)NS(=O)(=O)c1cnccc1NC1CCCCCC1 [Compound 19] | – |
